From publication PMC7893776, “Selecting an anti-malarial clinical candidate from two potent dihydroisoquinolones” (Malaria Journal, 2021) come the findings set out here.

Common to all, as to assay type: in vitro ADME
Data set [1] can be described thus: Microsomal stability, mouse. The note with it: mouse microsomes; for CLint in vitro: independent replicate to Table 4; for CLint in vivo: scaled up using PBSF. On the procedure:
(§1) The metabolic stability assay was performed by incubating compounds individually (0.8, 4, or 20 µM) with mouse, rat, dog and human liver microsomes (Fisher, 0.5 mg/mL protein concentration) at 37 °C. The metabolic reaction was initiated by the addition of a NADPH-regenerating system and quenched at various time points by the addition of acetonitrile according to a published method.
(§2) The remaining concentration of each compound was measured as a ratio of peak area to the internal standard. The log peak area ratio was plotted vs. time (h), and the slope was determined to calculate the elimination rate constant [k = (− 2.303) * slope]. If deviation from first order kinetics was evident, only the initial linear portion of the plot was used to determine the rate constate, k. The half-life (h) was calculated as t1/2 = 0.693/k. Intrinsic clearance in vitro was calculated as CLintin vitro = (1000)*(0.693/t1/2*60)/0.5, where microsomal concentration in the reaction solution was 0.5 mg/mL; 1000 and 60 are scaling factors for volume (µL) and time (min), respectively. The intrinsic in vitro clearance was scaled to the intrinsic in vivo clearance using physiology based scaling factor (PBSF): CLint in vivo= CLint in vitro *PBSF: (microsome protein/gram liver) * (gram liver/kg b.w.), with PBSF: 47 (mouse), 47(rat), 58 (dog), 32 (human); and liver weight proportions: 54.9 (mouse), 36.6 (rat), 32.9 (dog) 25.7 (human).

Data set [2] is described as follows: Microsomal stability, dog. The note with it: dog microsomes; for CLint in vitro: independent replicate to Table 4; for CLint in vivo: scaled up using PBSF. Here is the method:
as §1, §2

Data set [3] can be described thus: Microsomal stability, rat. The note with it: rat microsomes; for CLint in vitro: independent replicate to Table 4; for CLint in vivo: scaled up using PBSF. On the procedure: as §1, §2
The nature of data set [4]: Microsomal stability, human. The conditions noted are these: human microsomes; for CLint in vitro: independent replicate to Table 4; for CLint in vivo: scaled up using PBSF. On the procedure: as §1, §2

As for `N#Cc1cc(NC(=O)[C@@H]2c3ccccc3C(=O)N(CC(F)(F)F)[C@H]2c2cccnc2)ccc1F` [(-)-SJ733], the CLint in data set [1] (0.8 µM) is 32.1 ± 2.1 µl/min/mg protein; in data set [2] (0.8 µM), 10.9 ± 1.5 µl/min/mg protein; in data set [3] (0.8 µM), under 7 µl/min/mg protein; in data set [4] (0.8 µM), 61.7 ± 13.2 µl/min/mg protein. Further, the t1/2 in data set [1] (0.8 µM) is recorded as 0.8 ± 0.1 h; in data set [2] (0.8 µM), 2.2 ± 0.4 h; in data set [3] (0.8 µM), over 4 h; in data set [4] (0.8 µM), 0.4 ± 0.1 h. Moreover, the CLint in vitro turned out to be 30.6 ± 1.4 µl/min/mg protein in data set [1] (0.8 µM); 26.9 ± 0.6 µl/min/mg protein in data set [1] (4 µM); 10.5 ± 0.4 µl/min/mg protein in data set [1] (20 µM); 9.8 ± 0.4 µl/min/mg protein in data set [2] (0.8 µM); 9.5 ± 0.3 µl/min/mg protein in data set [2] (4 µM); 6.0 ± 0.4 µl/min/mg protein in data set [2] (20 µM). For the same molecule, the CLint in vitro in data set [3] (0.8 µM) is given as under 7 µl/min/mg protein; in data set [3] (4 µM) it was under 7 µl/min/mg protein; in data set [3] (20 µM), under 7 µl/min/mg protein; in data set [4] (0.8 µM), 52.4 ± 1.1 µl/min/mg protein; in data set [4] (4 µM) it was 40.4 ± 0.9 µl/min/mg protein; in data set [4] (20 µM) it was 25.3 ± 0.4 µl/min/mg protein. Also, the CLint in vivo in data set [1] (0.8 µM) is 71.7 ± 3.4 mL/min/kg; in data set [1] (4 µM), 63.0 ± 2.1 mL/min/kg; in data set [2] (0.8 µM), 14.1 ± 0.5 mL/min/kg; in data set [2] (4 µM), 13.7 ± 0.5 mL/min/kg; in data set [2] (20 µM), 8.6 ± 0.6 mL/min/kg; in data set [3] (0.8 µM) it was under 11.7 mL/min/kg. Also, the CLint in vivo was under 11.7 mL/min/kg in data set [3] (4 µM); under 11.7 mL/min/kg in data set [3] (20 µM); 47.2 ± 1.0 mL/min/kg in data set [4] (0.8 µM); 36.4 ± 0.8 mL/min/kg in data set [4] (4 µM); 22.7 ± 0.3 mL/min/kg in data set [4] (20 µM).

For `N#Cc1cc(NC(=O)[C@@H]2c3ccccc3C(=O)N(CC(F)(F)F)[C@H]2c2cn[nH]c2)ccc1F` [(−)-SJ311], the CLint in data set [1] (0.8 µM), in data set [2] (0.8 µM), in data set [3] (0.8 µM) and in data set [4] (0.8 µM) was under 7 µl/min/mg protein each time. Moreover, the t1/2 in data set [1] (0.8 µM), in data set [2] (0.8 µM), in data set [3] (0.8 µM) and in data set [4] (0.8 µM) was over 4 h in each case.
